Measurements published in patent publication US12239711B2, “Cereblon ligands and bifunctional compounds comprising the same” (Arvinas Operations, Inc., priority 2014, dated 2025).

Tests used:
androgen receptor (AR) = test: AR ELISA assay in LNCaP and/or VCaP cells; format: cell-based; settings: 5 hours
Procedure: 4. AR ELISA Assay Protocol for Table 6
Compounds were evaluated in this assay in LNCaP and/or VCaP cells utilizing similar protocols. The protocols used with VCaP cells are described below. The androgen receptor ELISA assay was performed using PathScani AR Sandwich ELISA (Cell Signaling Catalog #12850) according to the following assay steps:
VCaP cells were seeded at 40,000 cells/well at a volume of 100 μL/well in VCaP assay medium [Phenol red free RPMI (Gibco Cat #11835-030); 5% Charcoal Stripped (Dextran treated) FBS (Omega Scientific, Cat #FB-04); 1% penstrep (Life Technologies, Gibco Cat #: 10378-016)] in Corning 3904 plates. The cells were incubated for a minimum of 3 days. Cells were dosed with PROTACs diluted in 0.01% DMSO and the drug treatment was allowed for 5 hours.
AR ELISA (Cell Signaling) was performed as follows: 1× Cell Signaling Cell lysis buffer was made (Catalogue #9803; comes with the kit). Media from the treated wells is aspirated, and 100 μL 1× cell lysis buffer/well is added. The cells were placed on a shaker for 10 minutes at 4° C. Twenty microliters of lysate was transferred to 100 μl of Diluent in ELISA plate (0.15 μg/ml-0.075 μg/ml). The lysate-diluent mixture was shaken for 30 minutes at 37° C. Allow mouse AR antibody, anti-mouse antibody, TMB, and STOP solution to come to room temperature. The 1× ELISA buffer included in kit was made and loaded in the reservoir. Media from the plates was discarded, the ELISA plate tapped hard on paper towel, and washed 4×200 μl ELISA wash buffer using a plate washer.
One-hundred (100) μL/well of mouse AR detection Ab was added; the plates were covered and shaken at 37° C. for 1 hour; media was discarded from the plates, the plates were tapped on a paper towel, washed 4× with 200 μL ELISA wash buffer with a plate washer.
One-hundred (100) μL/well of anti-mouse—HRP conjugated Ab (comes with the kit) was added; the plates were covered and shaken at 37° C. for 30 minutes; the TMB reagent was allowed to come to room temperature; the media was discard from the plate, the plates were tapped on paper towl, washed 4× with 200 μL of ELISA wash buffer; the plates were tapped the plates on paper towl. One-hundred (100) μL of TMB was added and the plates shaken for 2 minutes—while watching for color development. One-hundred (100) μL Stop solution was added when light blue color developed. Plates were shaken and read at 450 nm.
Progression of prostate cancer in patients treated with anti-androgen therapy usually involves one of several mechanisms of enhanced Androgen Receptor (AR) signaling, including increased intratumoral androgen synthesis, increased AR expression and AR mutations. PROTACs (PROteolysis TArgeting Chimera), which use bi-functional molecules that simultaneously bind a target of choice and an E3 ligase, cause ubiquitination via induced proximity and degradation of the targeted, pathological protein. As opposed to traditional target inhibition, which is a competitive process, degradation is a progressive process. As such, it is less susceptible to increases in endogenous ligand, target expression, or mutations in the target. Thus, this technology appears to be ideal for addressing the mechanisms of AR resistance in patients with prostate cancer. Data was analyzed and plotted using GraphPad Prism software.

[1] = target: T1, Estrogen Receptor-Alpha (ERα) (Homo sapiens, UniProt P03372); test: Estrogen Receptor-Alpha (ERα) degradation assay in MCF-7 cells (western blot / In-Cell Western); format: cell-based; settings: for Dmax: MCF7, read-out: ER Dmax; for DC50: read-out: ER DC50
T1 construct: endogenous in cells; host or cells: MCF-7 (MCF7) cells
T1 sequence (P03372 1-595): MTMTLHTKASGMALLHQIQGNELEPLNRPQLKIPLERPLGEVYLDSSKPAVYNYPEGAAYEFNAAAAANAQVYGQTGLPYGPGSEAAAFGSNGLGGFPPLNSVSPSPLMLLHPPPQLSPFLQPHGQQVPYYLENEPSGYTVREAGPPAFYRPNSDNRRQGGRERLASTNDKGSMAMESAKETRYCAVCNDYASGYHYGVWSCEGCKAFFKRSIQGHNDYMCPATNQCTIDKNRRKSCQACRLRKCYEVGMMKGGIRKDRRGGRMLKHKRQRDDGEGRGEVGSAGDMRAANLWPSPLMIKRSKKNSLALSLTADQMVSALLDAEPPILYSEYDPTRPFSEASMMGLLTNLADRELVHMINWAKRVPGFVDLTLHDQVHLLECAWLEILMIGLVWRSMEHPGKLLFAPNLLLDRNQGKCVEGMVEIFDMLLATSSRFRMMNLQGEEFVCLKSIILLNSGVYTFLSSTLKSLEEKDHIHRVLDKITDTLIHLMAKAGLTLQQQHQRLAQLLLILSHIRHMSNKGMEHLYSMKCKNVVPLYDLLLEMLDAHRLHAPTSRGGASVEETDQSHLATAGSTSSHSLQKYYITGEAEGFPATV

[2] = system: estrogen responsive element/promoter/luciferase reporter gene; test: ERE Luciferase Assay in T47D-KBluc cells; format: cell-based, human; settings: Homo sapiens, 24 hours, luciferase activity, read-out: Target Engagement IC50
In short: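 T47D cells stably carrying an ERE-luciferase reporter, in RPMI with 10% FBS, treated 24 h with PROTACs over a 12-point 3-fold series (300 nM top final, 2 pM lowest). Luciferase measured after lysis; IC50 from duplicate wells in two independent experiments.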

SMILES | DC50 (androgen receptor (AR)) | Dmax [1] | DC50 [1] | IC50 [2] | AR Dmax (androgen receptor (AR))
CC(C)N(CC1CCN(c2cnc(C(=O)N[C@H]3C(C)(C)[C@H](Oc4ccc(C#N)c(Cl)c4)C3(C)C)cn2)CC1)[C@H]1C[C@H](Oc2ccc3c(c2)C2(CC2)N(C2CCC(=O)NC2=O)C3=O)C1 (mixture of isomers) [compound 38, rac-N-((1r,3r)-3-(3-chloro-4-cyanophenoxy)-2,2,4,4-tetramethylcyclobutyl)-5-(4-((((1r,3r)-3-((2′-(2,6-dioxopiperidin-3-yl)-3′-oxospiro[cyclopropane-1,1′-isoindolin]-6′-yl)oxy)cyclobutyl)(isopropyl)amino)methyl)piperidin-1-yl)pyrazine-2-carboxamide] |  |  |  |  | C (C < 50)
CC1(C)[C@H](NC(=O)c2ccc(N3CCC(CCN4CCN(c5cc6c(cn5)C(=O)N(C5CCC(=O)NC5=O)C6=O)CC4)CC3)cc2)C(C)(C)[C@H]1Oc1ccc(C#N)c(Cl)c1 (mixture of isomers) [compound 51, rac-N-((1r,3r)-3-(3-chloro-4-cyanophenoxy)-2,2,4,4-tetramethylcyclobutyl)-4-(4-(2-(4-(2-(2,6-dioxopiperidin-3-yl)-1,3-dioxo-2,3-dihydro-1H-pyrrolo[3,4-c]pyridin-6-yl)piperazin-1-yl)ethyl)piperidin-1-yl)benzamide] | < 1 nM |  |  |  | A (A >= 75)
CC1(C)[C@H](NC(=O)c2ccc(N3CCC(CN4CCN(c5ccc6c(c5)C5(CC5)N(C5CCC(=O)NC5=O)C6=O)CC4)CC3)cc2)C(C)(C)[C@H]1Oc1ccc(C#N)c(Cl)c1 (mixture of isomers) [compound 34, rac-N-((1r,3r)-3-(3-chloro-4-cyanophenoxy)-2,2,4,4-tetramethylcyclobutyl)-4-(4-((4-(2′-(2,6-dioxopiperidin-3-yl)-3′-oxospiro[cyclopropane-1,1′-isoindolin]-6′-yl)piperazin-1-yl)methyl)piperidin-1-yl)benzamide] |  |  |  |  | C (C < 50)
CC(C)N(CC1CCN(c2cnc(C(=O)N[C@H]3CC[C@H](Oc4ccc(C#N)c(Cl)c4)CC3)cn2)CC1)[C@H]1C[C@H](Oc2ccc3c(c2)C2(CC2)N(C2CCC(=O)NC2=O)C3=O)C1 (mixture of isomers) [compound 36, rac-N-((1r,4r)-4-(3-chloro-4-cyanophenoxy)cyclohexyl)-5-(4-((((1r,3r)-3-((2′-(2,6-dioxopiperidin-3-yl)-3′-oxospiro[cyclopropane-1,1′-isoindolin]-6′-yl)oxy)cyclobutyl)(isopropyl)amino)methyl)piperidin-1-yl)pyrazine-2-carboxamide] |  |  |  |  | C (C < 50)
CC(C)N(CC1CCN(c2cnc(C(=O)N[C@H]3C(C)(C)[C@H](Oc4ccc(C#N)c(Cl)c4)C3(C)C)cn2)CC1)[C@H]1C[C@H](Oc2ccc3c(c2)C(=O)N(C2CCC(=O)NC2=O)C32CC2)C1 (mixture of isomers) [compound 37, rac-N-((1r,3r)-3-(3-chloro-4-cyanophenoxy)-2,2,4,4-tetramethylcyclobutyl)-5-(4-((((1r,3r)-3-((2′-(2,6-dioxopiperidin-3-yl)-3′-oxospiro[cyclopropane-1,1′-isoindolin]-5′-yl)oxy)cyclobutyl)(isopropyl)amino)methyl)piperidin-1-yl)pyrazine-2-carboxamide] |  |  |  |  | C (C < 50)
CC1(C)[C@H](NC(=O)c2ccc(N3CCN(CCCCCOc4ccc5c(c4)CC(=O)N(C4CCC(=O)NC4=O)C5=O)CC3)nc2)C(C)(C)[C@H]1Oc1ccc(C#N)c(Cl)c1 (mixture of isomers) [compound 47, N-((1r,3r)-3-(3-chloro-4-cyanophenoxy)-2,2,4,4-tetramethylcyclobutyl)-6-(4-(5-((2-(2,6-dioxopiperidin-3-yl)-1,3-dioxo-1,2,3,4-tetrahydroisoquinolin-6-yl)oxy)pentyl)piperazin-1-yl)nicotinamide] | 1 to 10 nM |  |  |  | B (50 <= B < 75)
CC1(C)[C@H](NC(=O)c2ccc(N3CCC(CCN4CCN(c5ncc6c(n5)C(=O)N(C5CCC(=O)NC5=O)C6=O)CC4)CC3)cc2)C(C)(C)[C@H]1Oc1ccc(C#N)c(Cl)c1 (mixture of isomers) [compound 52, (rac)-N-((1r,3r)-3-(3-chloro-4-cyanophenoxy)-2,2,4,4-tetramethylcyclobutyl)-4-(4-(2-(4-(6-(2,6-dioxopiperidin-3-yl)-5,7-dioxo-6,7-dihydro-5H-pyrrolo[3,4-d]pyrimidin-2-yl)piperazin-1-yl)ethyl)piperidin-1-yl)benzamide] | < 1 nM |  |  |  | B (50 <= B < 75)

More lines, main results first:

DC50 (androgen receptor (AR)) | Dmax [1] | DC50 [1] | IC50 [2] | SMILES | AR Dmax (androgen receptor (AR))
 | 50 to 75% | 1 to 10 nM | 1.8 nM | O=C1CCC(N2Cc3cc(N4CCN(CCC5CC(Oc6ccc([C@@H]7c8ccc(O)cc8CC[C@@H]7c7ccccc7)cc6)C5)CC4)cc(OC(F)F)c3C2=O)C(=O)N1 (stereo partly drawn) [compound 23, 3-[7-(difluoromethoxy)-5-[4-[2-[3-[4-[(1R,2S)-6-hydroxy-2-phenyl-tetralin-1-yl]phenoxy]cyclobutyl]ethyl]piperazin-1-yl]-1-oxo-isoindolin-2-yl]piperidine-2,6-dione] | 
 | 50 to 75% | 10 to 100 nM | 58.2 nM | COc1cc(N2CCN(CCCCCOc3ccc([C@H]4c5ccc(O)cc5CC[C@H]4c4ccccc4)cc3)CC2)cc2c1C(=O)N(C1CCC(=O)NC1=O)C2 (stereo partly drawn) [compound 1, 3-{5-[4-(5-{4-[(1S,2R)-6-hydroxy-2-phenyl-1,2,3,4-tetrahydronaphthalen-1-yl]phenoxy}pentyl)piperazin-1-yl]-7-methoxy-1-oxo-2,3-dihydro-1H-isoindol-2-yl}piperidine-2,6-dione] | 
 | 50 to 75% | 1 to 10 nM | 2.1 nM | O=C1CCC(N2C(=O)c3ccc(N4CCN(CC5CCN(c6ccc([C@@H]7c8ccc(O)cc8CC[C@@H]7c7ccccc7)cc6F)CC5)CC4)cc3C23CC3)C(=O)N1 (stereo partly drawn) [compound 30, 3-[6′-[4-[[1-[2-fluoro-4-[(1R,2S)-6-hydroxy-2-phenyl-tetralin-1-yl]phenyl]-4-piperidyl]methyl]piperazin-1-yl]-3′-oxo-spiro[cyclopropane-1,1′-isoindoline]-2′-yl]piperidine-2,6-dione] | 
 | 50 to 75% | 1 to 10 nM | 17.5 nM | COc1cc(N2CCN(CC3CCN(c4c(F)cc([C@H]5c6ccc(O)cc6CC[C@H]5c5ccccc5)cc4F)CC3)CC2)cc2c1C(=O)N(C1CCC(=O)NC1=O)C2 (stereo partly drawn) [compound 18, 3-(5-{4-[(1-{2,6-difluoro-4-[(1S,2R)-6-hydroxy-2-phenyl-1,2,3,4-tetrahydronaphthalen-1-yl]phenyl}piperidin-4-yl)methyl]piperazin-1-yl}-7-methoxy-1-oxo-2,3-dihydro-1H-isoindol-2-yl)piperidine-2,6-dione] | 
